pIC50: −log10 of the molar value.

Data set [1] addresses NF-κB (p65) (Homo sapiens, UniProt Q04206). Kind of data set: Enzyme-based ELISA NF-κB p65 inhibition assay. Format: biochemical. As to conditions: for pIC50: read-out: NF-κB p65 inhibition IC50, ELISA, rocaglamide positive control; for NF-κB (p65) inhibitory activity (result in words): inactive = IC50 > 10 µM.
Data set [2] has as its system panel of human cancer cell lines. The conditions noted are these: reported previously; cited from earlier work.
Data set [3] relates to HT-29 human colon cancer cell line.

Chain of NF-κB (p65) (Q04206 whole entry): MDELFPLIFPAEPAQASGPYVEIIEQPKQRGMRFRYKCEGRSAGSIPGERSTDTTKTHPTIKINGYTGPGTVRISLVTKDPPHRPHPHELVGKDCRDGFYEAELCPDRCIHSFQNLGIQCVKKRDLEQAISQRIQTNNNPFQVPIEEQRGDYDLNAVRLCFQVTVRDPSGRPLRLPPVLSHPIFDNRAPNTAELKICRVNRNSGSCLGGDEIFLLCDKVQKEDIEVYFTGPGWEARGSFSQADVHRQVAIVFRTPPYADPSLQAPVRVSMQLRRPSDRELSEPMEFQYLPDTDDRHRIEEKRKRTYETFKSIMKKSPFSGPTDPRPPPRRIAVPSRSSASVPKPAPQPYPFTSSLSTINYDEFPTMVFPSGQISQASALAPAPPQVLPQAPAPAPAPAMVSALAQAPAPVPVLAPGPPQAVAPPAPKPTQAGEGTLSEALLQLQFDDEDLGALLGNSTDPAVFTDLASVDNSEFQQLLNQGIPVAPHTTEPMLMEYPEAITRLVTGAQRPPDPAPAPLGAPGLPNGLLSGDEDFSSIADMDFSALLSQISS

As for `C=C1C(=O)O[C@@H]2C[C@@H](C)/C=C\C(=O)[C@](C)(OC(C)=O)C[C@H](OC(=O)/C(C)=C\C)[C@@H]12` [Compound 7, ereglomerulide], the pIC50 – broadly, the negative decadic logarithm of the IC50, by convention in mol/L – in data set [1] was under 5.00.

For the molecule `C=C1C(=O)O[C@H]2[C@H]1CC/C(C)=C/CC[C@@]1(C)O[C@@H]21` [parthenolide, reference compound], the “Cytotoxicity toward a panel of human cancer cell lines (result in words)” value (shortened to “Cytotoxicity toward a panel”) in data set [2] is recorded as “exhibit cytotoxicity”.

Consider `C=C1C(=O)OC2CC(C)C(OC)CC(=O)C(C)(OC(C)=O)CC(OC(=O)C(C)=CC)C12` [Compound 5, (3R,4R,6R,7S,8S,10R)-1-oxo-3-methoxy-8-angeloyloxy-10-acetoxygermacra-11(13)-en-6,12-olide], for which, in data set [1], the “NF-κB (p65) inhibitory activity (result in words)” value (shortened to “NF-κB (p65) inhibitory activity”) is “active” and the pIC50 was 5.68.

In the case of `C=C(C)C(=O)O[C@H]1C[C@@]2(C)OC(=CC2=O)/C(CO)=C\[C@H]2OC(=O)C(=C)[C@H]12` [Compound 8, goyazensolide], in data set [1], the “NF-κB (p65) inhibitory activity” value is reported as “active” and the pIC50 was 5.42. Also, the “Cytotoxicity toward a panel” value in data set [2] was “exhibit cytotoxicity”.

`C=C1C(=O)OC2CC(C)CCC(=O)C(C)(OC(C)=O)CC(OC(=O)C(C)=CC)C12` [Compound 3, (4S,6R,7S,8S,10R)-1-oxo-8-angeloyloxy-10-acetoxygermacra-11(13)-en-6,12-olide]: the negative-log IC50 (pIC50) in data set [1] was under 5.00; in data set [3] it was 5.52.

On to `C=C1C(=O)OC2CC(C)C(OC)CC(=O)C(C)(O)CC(OC(=O)C(C)=CC)C12` [Compound 6, (3R,4R,6R,7S,8S,10R)-1-oxo-3-methoxy-8-angeloyloxy-10-hydroxygermacra-11(13)-en-6,12-olide], for which, in data set [1], the pIC50 was under 5.00.

`C=C1C(=O)O[C@@H]2/C=C(/C)C3=CC(=O)[C@@](C)(C[C@H](OC(=O)/C(C)=C\C)[C@@H]12)O3` [Compound 12, lychnopholide]: in data set [1], the “NF-κB (p65) inhibitory activity” value is given as “active” and the pIC50 was 5.54. The “Cytotoxicity toward a panel” value in data set [2] is reported as “exhibit cytotoxicity”.

Turning to 15-deoxygoyazensolide [Compound 10], in data set [1], the “NF-κB (p65) inhibitory activity” value is listed as “active” and the negative-log IC50 (pIC50) is 5.49. Moreover, the pIC50 in data set [3] is 6.59.

On to 4,5-dihydrolychnopholide [Compound 13], for which the pIC50 in data set [1] is under 5.00.

With `C=C1C(=O)O[C@@H]2C/C(C)=C\CC(=O)[C@](C)(OC(C)=O)C[C@H](OC(=O)/C(C)=C\C)[C@@H]12` [Compound 4, (6R,7S,8S,10R)-1-oxo-8-angeloyloxy-10-acetoxygermacra-3(4),11(13)-dien-6,12-olide], the negative-log IC50 (pIC50) in data set [1] is under 5.00.
